Entries after “also recorded” stand apart in the source; their conditions may differ.
Tested on: Pseudomonas aeruginosa, Escherichia coli, Klebsiella sp., Salmonella sp., Staphylococcus aureus, Enterococcus sp., Bacillus subtilis
Assay: Antimicrobial activity / minimum inhibitory concentrations on seven strains of bacteria
Type: cell-based
Conditions: for toxicity / antibacterial activity in words: seven strains of bacteria; for MIC values: seven strains, not split, range tested 0-20000 μg/ml
Protocol: Seven strains of bacteria were used in the assessment of the antimicrobial activity of the ILs claimed: 4 gram negative and three gram positive as shown below.
A wide concentration range was tested (0-20000 μg/ml). The concentrations screened for antibacterial activity are generally from 2 μg/ml to 1000 μg/ml (Table 6). […] The concentration range screened for the ILs containing ethers was up to 20000 μg/ml. At these high concentrations a lack of antibacterial activity is a significant result.

Compound	toxicity / antibacterial activity in words	MIC values
COCCOCCOC(=O)Cn1cc[n+](C)c1.O=S(=O)([N-]S(=O)(=O)C(F)(F)F)C(F)(F)F [KG53, 3-methyl-1-(2-[2-methoxyethoxy]ethoxycarbonylmethyl)imidazolium NTf2]	non-toxic	10000 KG53 μg/ml
COCCOC(=O)Cn1cc[n+](C)c1.O=S(=O)([N-]S(=O)(=O)C(F)(F)F)C(F)(F)F [KG49, 3-methyl-1-(2-[2-methoxy]ethoxycarbonylmethyl)imidazolium NTf2]	non-toxic	10000 KG49 μg/ml
3-methyl-1-(2-[2-methoxyethoxy]ethoxycarbonylmethyl)imidazolium BF4 [KG66]	non-toxic	>20000 KG66 μg/ml
COCCOCCOC(=O)Cn1cc[n+](C)c1.N#C[N-]C#N [KG79, 3-methyl-1-(2-[2-methoxyethoxy]ethoxycarbonylmethyl)imidazolium N(CN)2]	non-toxic	>20000 KG79 μg/ml
3-methyl-1-(2-[2-methoxyethoxy]ethoxycarbonylmethyl)imidazolium PF6 [KG27]	non-toxic	2500 KG27 μg/ml
3-methyl-1-(2-[2-ethoxy]ethoxycarbonylmethyl)imidazolium PF6 [KG24]	non-toxic	>20000 KG24 μg/ml
3-methyl-1-(2-[2-butoxy]ethoxycarbonylmethyl)imidazolium PF6 [KG26]	non-toxic	>20000 KG26 μg/ml
C[n+]1ccn(CC(=O)N2CCCC2)c1.[Br-] [KG420, 3-methyl-1-(pyrrolidinylcarbonylmethyl)imidazolium bromide, reference compound]		>20000 KG420 μg/ml
CCCCOC(=O)Cn1cc[n+](C)c1.N#C[N-]C#N [KG73, 3-Methyl-1-(butoxycarbonylmethyl) imidazolium N(CN)2^−]		5000 KG73 μg/ml
2,3-dimethyl-1-(2-[2-butoxy]ethoxycarbonylmethyl)imidazolium PF6 [KG32]	non-toxic	>20000 KG32 μg/ml
3-methyl-1-(2-[2-ethoxyethoxy]ethoxycarbonylmethyl)imidazolium PF6 [KG28]	non-toxic	>20000 KG28 μg/ml
COC(C)N(C(=O)Cn1cc[n+](C)c1)C(C)OC.[Br-] (stereo not shown) [KG407, (3-methyl-1-[bis-1-methoxyethyl]carbamylmethyl)imidazolium bromide]	low toxicity; also recorded: non-toxic	>20000 KG407 μg/ml
CCOCCOCCOC(=O)Cn1cc[n+](C)c1.N#C[N-]C#N [KG80, 3-methyl-1-(2-[2-ethoxyethoxy]ethoxycarbonylmethyl)imidazolium N(CN)2]	non-toxic	>20000 KG80 μg/ml
COC(C)NC(=O)C[n+]1ccn(C)c1.[Br-] (stereo not shown) [KG422, (3-methyl-1-[1-methoxyethyl]carbamylmethyl)imidazolium bromide]	low toxicity; also recorded: non-toxic	>20000 KG422 μg/ml
2,3-dimethyl-1-(2-[2-methoxyethoxy]ethoxycarbonylmethyl)imidazolium BF4 [KG72]	non-toxic	>20000 KG72 μg/ml
CCC(NC(=O)Cn1cc[n+](C)c1)OC.[Br-] (stereo not shown) [KG423, (3-methyl-1-[1-methoxypropyl]carbamylmethyl)imidazolium bromide]	low toxicity	>20000 KG423 μg/ml
CCOCCOC(=O)C[n+]1ccn(C)c1.O=S(=O)([N-]S(=O)(=O)C(F)(F)F)C(F)(F)F [KG50, 3-methyl-1-(2-[2-ethoxy]ethoxycarbonylmethyl)imidazolium NTf2]	non-toxic	>20000 KG50 μg/ml
CCCCOCCOC(=O)Cn1cc[n+](C)c1.O=S(=O)([N-]S(=O)(=O)C(F)(F)F)C(F)(F)F [KG52, 3-methyl-1-(2-[2-butoxy]ethoxycarbonylmethyl)imidazolium NTf2]	non-toxic	>20000 KG52 μg/ml
3-methyl-1-(2-[2-propoxyethoxy]ethoxycarbonylmethyl)imidazolium BF4 [KG68]	non-toxic	>20000 KG68 μg/ml
COCCOCCOC(=O)Cn1cc[n+](C)c1C.O=S(=O)([N-]S(=O)(=O)C(F)(F)F)C(F)(F)F [KG59, 2,3-dimethyl-1-(2-[2-methoxyethoxy]ethoxycarbonylmethyl)imidazolium NTf2]	non-toxic	>20000 KG59 μg/ml
3-methyl-1-(2-[2-butoxyethoxy]ethoxycarbonylmethyl)imidazolium PF6 [KG30]	non-toxic	>20000 KG30 μg/ml

Compound	toxicity / antibacterial activity in words	MIC values
3-methyl-1-(2-[2-methoxy]ethoxycarbonylmethyl)imidazolium PF6 [KG23]	non-toxic	>20000 KG23 μg/ml
CCOCCOC(=O)C[n+]1ccn(C)c1.N#C[N-]C#N [KG76, 3-methyl-1-(2-[2-ethoxy]ethoxycarbonylmethyl)imidazolium N(CN)2]	non-toxic	>20000 KG76 μg/ml
CCCCOCCOC(=O)Cn1cc[n+](C)c1C.N#C[N-]C#N [KG84, 2,3-dimethyl-1-(2-[2-butoxy]ethoxycarbonylmethyl)imidazolium N(CN)2]	non-toxic	>20000 KG84 μg/ml
CCCOCCOCCOC(=O)C[n+]1ccn(C)c1.O=S(=O)([N-]S(=O)(=O)C(F)(F)F)C(F)(F)F [KG55, 3-methyl-1-(2-[2-propoxyethoxy]ethoxycarbonylmethyl)imidazolium NTf2]	non-toxic	>20000 KG55 μg/ml
3-methyl-1-(2-[2-butoxyethoxy]ethoxycarbonylmethyl)imidazolium BF4 [KG69]	non-toxic	>20000 KG69 μg/ml
2,3-dimethyl-1-(2-[2-methoxyethoxy]ethoxycarbonylmethyl)imidazolium PF6 [KG33]	non-toxic	>20000 KG33 μg/ml
3-methyl-1-(2-[2-butoxy]ethoxycarbonylmethyl)imidazolium BF4 [KG65]	non-toxic	>20000 KG65 μg/ml
CCCOCCOCCOC(=O)Cn1cc[n+](C)c1.N#C[N-]C#N [KG81, 3-methyl-1-(2-[2-propoxyethoxy]ethoxycarbonylmethyl)imidazolium N(CN)2]	non-toxic	>20000 KG81 μg/ml
CCCOCCOC(=O)Cn1cc[n+](C)c1.O=S(=O)([N-]S(=O)(=O)C(F)(F)F)C(F)(F)F [KG51, 3-methyl-1-(2-[2-propoxy]ethoxycarbonylmethyl)imidazolium NTf2]	non-toxic	10000 KG51 μg/ml
3-methyl-1-(2-[2-propoxyethoxy]ethoxycarbonylmethyl)imidazolium PF6 [KG29]	non-toxic	>20000 KG29 μg/ml
CCCOCCOC(=O)C[n+]1ccn(C)c1.N#C[N-]C#N [KG77, 3-methyl-1-(2-[2-propoxy]ethoxycarbonylmethyl)imidazolium N(CN)2]	non-toxic	>20000 KG77 μg/ml
3-methyl-1-(2-[2-propoxy]ethoxycarbonylmethyl)imidazolium PF6 [KG25]	non-toxic	>20000 KG25 μg/ml
CCCCOCCOCCOC(=O)Cn1cc[n+](C)c1.N#C[N-]C#N [KG82, 3-methyl-1-(2-[2-butoxyethoxy]ethoxycarbonylmethyl)imidazolium N(CN)2]	non-toxic	>20000 KG82 μg/ml
3-methyl-1-(2-[2-methoxy]ethoxycarbonylmethyl)imidazolium BF4 [KG62]	non-toxic	>20000 KG62 μg/ml
COCCOC(=O)Cn1cc[n+](C)c1.N#C[N-]C#N [KG75, 3-methyl-1-(2-[2-methoxy]ethoxycarbonylmethyl)imidazolium N(CN)2]	non-toxic	>20000 KG75 μg/ml
CCCCOCCOC(=O)Cn1cc[n+](C)c1.N#C[N-]C#N [KG78, 3-methyl-1-(2-[2-butoxy]ethoxycarbonylmethyl)imidazolium N(CN)2]	non-toxic	>20000 KG78 μg/ml
Cc1n(CC(=O)N2CCCC2)cc[n+]1C.[Br-] [KG421, 2,3-dimethyl-1-(pyrrolidinylcarbonylmethyl)imidazolium bromide, reference compound]		>20000 KG421 μg/ml
CCCCOCCOCCOC(=O)Cn1cc[n+](C)c1.O=S(=O)([N-]S(=O)(=O)C(F)(F)F)C(F)(F)F [KG56, 3-methyl-1-(2-[2-butoxyethoxy]ethoxycarbonylmethyl)imidazolium NTf2]	non-toxic	>20000 KG56 μg/ml
CCCCOCCOC(=O)C[n+]1ccn(C)c1C.O=S(=O)([N-]S(=O)(=O)C(F)(F)F)C(F)(F)F [KG58, 2,3-dimethyl-1-(2-[2-butoxy]ethoxycarbonylmethyl)imidazolium NTf2]	non-toxic	>20000 KG58 μg/ml
3-methyl-1-(2-[2-propoxy]ethoxycarbonylmethyl)imidazolium BF4 [KG64]	non-toxic	>20000 KG64 μg/ml

Source: patent US8541598B2, “Biodegradable solvents for the chemical industry” (Dublin City University, priority 2007, dated 2013)
